By half-life is commonly meant the time in which the quantity being followed falls by half.

This is an account of results in patent US20200121807A1, “Anti-Cancer Agents” (UEA ENTERPRISES LIMITED, priority 2016, published 2020).

For data set [1] the following is noted: in vivo; cited from earlier work.
Data set [2] in a line: Toxicity in PC-3 tumour-bearing NSG mice (body weight, liver weight, WCC). The class given is in vivo. To be noted: after 2 weeks of administration. The procedure: At Day 30 mice were sacrificed and liver weight measurements were performed. Liver weight was normalised to control group (healthy group no treatment). *: p<0.05 vs. control group (ANOVA). Data is expressed as Mean±SE (n=7).

Data set [3] deals with PC-3 metastatic prostate cancer cells. The data set can be described thus: PC-3 prostate tumour xenograft, free agents, tumour weight. The class given is in vivo, Balb/c nude mice. To be noted: 5 mg/kg single agent, prostate tumours. The protocol: (§1) Tumour weight at week 5. Columns, mean of three experiments performed in triplicate. Bars, SE. * p<0.05 versus control.
(§2) Mice and tumours were weighed.
(§3) Data are presented as the mean values of at least three independent experiments normalised to control±standard error of the mean (SE) calculated using OriginPro. Statistical significance between two groups was conducted by unpaired Student's t test. p value of <0.05 is considered statistically significant.

The test system of data set [4] is MDA-MB-231 metastatic triple negative breast cancer cell. Description: MDA-MB-231 breast tumour xenograft, free agents, tumour weight. The class given is in vivo, Balb/c nude mice. To be noted: 5 mg/kg single agent, breast tumours. The procedure: as §1, §2, §3
A further data set addresses T1, SK1 (Homo sapiens, UniProt Q9NYA1).
T1 construct: endogenous in cells; host or cells: PC-3 cells (obtained from DSMZ)
Description: SK1 activity by radiolabelling in PC-3 cells. The class given is cell-based. As to conditions: PC-3 cells treated for 48 h. The protocol: (D) PC-3 cells were treated for 48 h as indicated in figure and SK1 activity was measured by radiolabelling. Columns, points, percentage relative to the control. Data is expressed as Mean±SE (n=3). * p<0.05 versus control, ** p<0.05 versus free drug treatment (DTX+FTY). (E) Cytotoxicity of free drugs was assessed using the MTT assay (48 hr: dark shading; 72 hr: light shading; 96 hr: no shading); the final two columns showing sequential administration of docetaxel on day 1 (D1) followed by FTY720 on day 2 (D2), or administration of FTY720 on day 1 (D1) followed by docetaxel on day 2 (D2).
SK1 assay was performed using radiolabelling as previously described (Alshaker et al (2014), above, plus: Alshaker, H. et al. Sphingosine kinase 1 contributes to leptin-induced STAT3 phosphorylation through IL-6/gp130 transactivation in oestrogen receptor-negative breast cancer. Breast Cancer Res Treat 149, 59-67, doi:10.1007/s10549-014-3228-8 (2015); and Pchejetski, D. et al. The involvement of sphingosine kinase 1 in LPS-induced Toll-like receptor 4-mediated accumulation of HIF-1alpha protein, activation of ASK1 and production of the pro-inflammatory cytokine IL-6. Immunol Cell Biol 89, 268-274, doi:10.1038/icb.2010.91 (2011)), in conditions favouring SK1 activity and inhibiting SK2 activity.

The structures appear in SMILES notation.

T1 sequence (Q9NYA1 whole entry): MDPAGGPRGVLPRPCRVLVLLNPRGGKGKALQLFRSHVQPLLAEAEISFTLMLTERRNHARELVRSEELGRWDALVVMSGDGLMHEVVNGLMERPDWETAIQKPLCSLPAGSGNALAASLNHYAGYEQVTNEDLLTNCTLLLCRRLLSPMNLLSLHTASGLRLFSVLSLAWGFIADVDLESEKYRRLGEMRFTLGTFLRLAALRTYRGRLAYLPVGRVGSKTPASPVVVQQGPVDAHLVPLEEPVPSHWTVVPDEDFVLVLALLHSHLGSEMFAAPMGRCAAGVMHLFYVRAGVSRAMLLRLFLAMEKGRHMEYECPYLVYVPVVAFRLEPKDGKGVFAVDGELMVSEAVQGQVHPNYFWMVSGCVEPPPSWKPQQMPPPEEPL

Consider `CCCCCCCCc1ccc(CCC(N)(CO)CO)cc1` [FTY720, fingolimod], for which the half-life in data set [1] is 140 to 220 h. Besides, the white cell count entry in data set [2] is on record as “significantly reduced white cell count”.
Turning to `Oc1ccc(Nc2nc(-c3ccc(Cl)cc3)cs2)cc1` [SK1-II], the “tumour weight reduction, individual drug treatment” value in data set [3] was “did not reduce the tumour weight significantly”.
Consider `CC(=O)O[C@@]12CO[C@@H]1C[C@H](O)[C@@]1(C)C(=O)[C@H](O)C3=C(C)[C@@H](OC(=O)[C@H](O)[C@@H](NC(=O)OC(C)(C)C)c4ccccc4)C[C@@](O)([C@@H](OC(=O)c4ccccc4)[C@H]21)C3(C)C` [docetaxel], for which, in data set [1], the circulation half-life is ~17 h. For the same compound, the “tumour weight reduction, individual drug treatment” value in data set [4] and in data set [3] was “did not reduce the tumour weight significantly” each time. Also, at SK1, the SK1 activity entry is “insignificant increase”.
